Reference: patent US20170209499A1, “Propolis and Extracts Thereof for the Treatment of Skin Cancers and Improvement of Skin Health” (Manuka Health New Zealand Limited, priority 2014, published 2017)

How the values were obtained:
[1] = test system: human basal carcinoma cell line TE 354.T; assay: MTT cell proliferation assay, human basal cell carcinoma cell line TE 354.T; assay type: cell-based; conditions: for Mean OD: MTT Optical Density at 570 nm
Protocol: (§1) The three human skin cancer cell lines were: • 1) Human Melanoma cell line (A-2058). • 2) Human Epidermoid (Squamous) Carcinoma cell line (A-431). • 3) Human Basal Cell Carcinoma cell line (TE 354.T).
(§2) The cell lines were revived from cryostorage and cultured in the presence of the test and reference samples. An MIT assay was then performed on the cultures to determine the effect of the samples on the cell viability and proliferation. The percentage standard error of the mean was assessed and extreme outliers were removed if the SEM%>15. Preliminary statistical significance was assessed with an independent Student t-test at α<0.05 (with and without outliers). The methodology was based on the procedures reported by: • Ahn, N G, Campbell J S (1993). […] Proc Natl Acad Sci. 90: 5143-5147. • Galan-Cobo, A et al (2014). Functional inhibition of aquaporin-3 with a gold-based compound induces blockage of cell proliferation. J Cellul. Physiol. 229: 1787-1801. • Roomi, M W, Kalinovsky, J et al (2013) Effect of a nutrient mixture on matrix metalloproteinase-9 dimers in various human cancer cell lines. Inter 3 Oncol. 44: 936-942. • Huang, H C, Lin, M K et al (2013). Cardenolides and bufadienolide glycosides from Kalanchoe tubiflora and evaluation of cytotoxicity. Planta Medica. 79: 1362-1369. • Tilli, C M L J, Stavast-Kooy, A J W et al (2003). The garlic-derived organosulfur component ajoene decreases basal cell carcinoma tumor size by inducing apoptosis. Arch Dermatol Res. 295: 117-123.
(§3) • 1. Human melanoma cell line (A-2058, ATCC CRL11147) was obtained from ATCC, Bethesda, Md., USA. • 2. Human squamous (epidermoid) carcinoma cell line (A-431, ATCC CRL1555) was obtained from ATCC, Bethesda, Md. USA. • 3. Human basal cell carcinoma cell line (TE 354.T, ATCC CRL7762) was obtained from ATCC, Bethesda, Md., USA. • 4. Dulbecco's Modified Eagle's Medium (DMEM) was obtained from GIBCO (12100-038). 10% Foetal Bovine Serum (FBS), 100 U/ml Penicillin and […] Streptomycin were added before use. • 5. Penicillin-streptomycin solution, stored at −20° C. consisting of 10000 units/ml penicillin and 10 mg/ml streptomycin in 0.9% NaCl was obtained from Sigma (#P-0781). • 6. Trypsin-EDTA solution consisting of 0.25% Trypsin/EDTA was obtained from Invitrogen (#15400054). • 7. Phosphate buffered saline (PBS) was prepared in-house. • 8. Hanks Balanced Salt Solution (HBSS), stored at 4° C. was obtained from GIBCO (#14185-052). • 9. Foetal Bovine Serum (FBS) stored at −20° C. was obtained from GIBCO (#10091-148). • 10. MTT Reagent, 100 mg/vial, was obtained from Sigma (M-2128) and then dissolved in PBS at 10 mg/ml and stored at −20° C. A 5 mg/ml MTT solution was prepared in PBS and stored at 4° C. as the working solution. • 11. MU lysis buffer: 10% sodium dodecyl sulphate (SDS)/45% Dimethyl Formamide was prepared by dissolving 20 g SDS in 100 ml of double-distilled water (DDW), and then adding 90 ml of Dimethyl Formamide to the solution. The pH was adjusted to 4.7 by glacial acetic acid, and DDW added up to a final volume of 200 ml. • 12. 5-Fluorouracil (5-FU) was supplied by Sigma (F-6627). Three working solutions were prepared at 19.5 μg/ml. 6.5 μg/ml and 1.95 μg/ml dissolved in 15% Ethanol/HBSS. Final concentrations were 1.95 μg/ml (15 μM), 0.65 μg/ml (5 μM) and 0.195 μg/ml (1.5 μM).
(§4) • 1. Each of the cell lines was revived from cryostorage. • 2. Following initial propagation using the media described above (Characterisation of Test System, and Medium Preparation), the cell culture was subcultured using trypsin-EDTA. The media was removed and 5ml of the trypsin-EDTA solution added and incubated at 37° C. for 5 min or until all the cells had detached. The trypsin was neutralised by the addition of an equal volume of the relevant medium and centrifugation of the suspension at 300 g (1200 rpm) for 5 min at 4° C. • 3. […]

[2] = test system: human epidermoid cancer cell line A-431; assay: MTT cell proliferation assay, human epidermoid (squamous) carcinoma cell line A-431; assay type: cell-based; conditions: for Mean OD: MTT Optical Density at 570 nm
Protocol: as §1, §2, §3, §4

O=c1[nH]cc(F)c(=O)[nH]1 [5-fluorouracil, reference compound]
Mean OD ([1]; 0.195 μg/ml): 0.2548
Mean OD ([1]; 0.65 μg/ml): 0.2656
Mean OD ([1]; 1.95 μg/ml): 0.2553
inhibition at 0.195 µg/mL ([1]; Homo sapiens, 0.195 μg/ml, 24 hr incubation, vs cells only): 5.49%
inhibition at 0.65 µg/mL ([1]; Homo sapiens, 0.65 μg/ml, 24 hr incubation, vs cells only): 1.49%
inhibition at 1.95 µg/mL ([1]; Homo sapiens, 1.95 μg/ml, 24 hr incubation, vs cells only): 5.31%
% inhibition ([2]; A-431, 0.195 μg/ml, 24 hr incubation, vs cells only): weak and statistically insignificant inhibitor
Mean OD ([2]; A-431, 0.195 μg/ml): 0.2364
% inhibition ([2]; A-431, 0.65 μg/ml, 24 hr incubation, vs cells only): weak and statistically insignificant inhibitor
Mean OD ([2]; A-431, 0.65 μg/ml): 0.2416
% inhibition ([2]; A-431, 1.95 μg/ml, 24 hr incubation, vs cells only): weak and statistically insignificant inhibitor
Mean OD ([2]; A-431, 1.95 μg/ml): 0.2561
inhibition at 0.195 µg/mL ([2]; Homo sapiens, A-431, 0.195 μg/ml, 24 hr incubation, vs cells only): 9.79%
inhibition at 0.65 µg/mL ([2]; Homo sapiens, A-431, 0.65 μg/ml, 24 hr incubation, vs cells only): 7.8%
inhibition at 1.95 µg/mL ([2]; Homo sapiens, A-431, 1.95 μg/ml, 24 hr incubation, vs cells only): 2.26%
